Results reported in patent US6503881B2 (priority 1996, dated 2003).
Read-outs that look alike come from different tables or passages of the source.

Legend:
[1] = system: inherently resistant microorganisms
bacterial isolates = conditions: for FIC: Tobramycin + peptide
[2] = system: microorganisms with acquired resistance
[3] = S. maltophilia SMA018, pair Amikacin / MBI 11B16CN
[4] = S. maltophilia SMA022, pair Amikacin / MBI 11B16CN
[5] = S. maltophilia SMA018, pair Amikacin / MBI 21A2

KWKLFIKKLTPAVKKVLLTGLPALIS [MBI 29F1]
MIC Alone ([1]; S. aureus SA025 MRSA, pair Amikacin / MBI 29F1): 1 µg/mL

ILRWPWWPWRRKIMILKKAGS [MBI 11B16CN]
MIC (bacteria; A. calcoaceticus AC002): 4 µg/mL
MIC (bacteria; E. cloacae ECL007): >128 µg/mL
MIC (bacteria; E. coli ECO005): 16 µg/mL
MIC (bacteria; E. faecalis EFS001): 2 µg/mL
MIC (bacteria; K. pneumoniae KP001): 16 µg/mL
MIC (bacteria; P. aeruginosa PA004): >128 µg/mL
MIC (bacteria; S. aureus SA093): 2 µg/mL
MIC (bacteria; S. epidermidis SE010): 4 µg/mL
MIC (bacteria; S. maltophilia SMA002): 32 µg/mL
MIC (bacteria; S. marcescens SMS003): >128 µg/mL
MIC Alone ([1]; A baumannii ABI001, pair Amikacin / MBI 11B16CN): 32 µg/mL
FIC [1, 3]: 0.31
MIC Alone [1, 3]: 32 µg/mL
MIC in combination [1, 3]: 8 µg/mL
FIC [1, 4]: 0.14
MIC Alone [1, 4]: >128 µg/mL
MIC in combination [1, 4]: 32 µg/mL

R L A R I V V I R V A R [REWH 53A5CN]
Peptide MIC + Tobramycin (bacterial isolates; S. aureus SA014 MRSA): 8 µg/mL
Peptide MIC Alone (bacterial isolates; S. aureus SA014 MRSA): 16 µg/mL
Tobramycin MIC + Peptide (bacterial isolates; S. aureus SA014 MRSA): 0.125 µg/mL
Peptide MIC + Tobramycin (bacterial isolates; S. maltophilia SMA029): 16 µg/mL
Peptide MIC Alone (bacterial isolates; S. maltophilia SMA029): >128 µg/mL
Tobramycin MIC + Peptide (bacterial isolates; S. maltophilia SMA029): 4 µg/mL
Peptide MIC + Tobramycin (bacterial isolates; S. maltophilia SMA030): 32 µg/mL
Peptide MIC Alone (bacterial isolates; S. maltophilia SMA030): >128 µg/mL
Tobramycin MIC + Peptide (bacterial isolates; S. maltophilia SMA030): 0.25 µg/mL
FIC (bacterial isolates; S. aureus SA014 MRSA): 0.50
FIC (bacterial isolates; S. maltophilia SMA029): 0.08
FIC (bacterial isolates; S. maltophilia SMA030): 0.13
Peptide MIC + Tobramycin ([2]; S. maltophilia SMA029): 32 µg/mL
Tobramycin MIC + Peptide ([2]; S. maltophilia SMA029): 0.25 µg/mL
Peptide MIC Alone ([2]; S. maltophilia SMA029 (7. Tobramycin)): >128 µg/mL
Peptide MIC + Tobramycin ([2]; S. maltophilia SMA030): 32 µg/mL
Tobramycin MIC + Peptide ([2]; S. maltophilia SMA030): 0.25 µg/mL
Peptide MIC Alone ([2]; S. maltophilia SMA030 (7. Tobramycin)): >128 µg/mL
FIC ([2]; peptide + Tobramycin, S. maltophilia SMA029): 0.13
FIC ([2]; peptide + Tobramycin, S. maltophilia SMA030): 0.13

KKWWRRALQGLKTAGPAIQSVLNK [MBI 21A2]
MIC Alone [1, 5]: 16 µg/mL
MIC in combination [1, 5]: 8 µg/mL
acquired resistance of S. aureus to piperacillin and ciprofloxacin ([2]; antibiotic agents combined with the peptide): overcome

I L R R W P W W P W R R K [MBI 11B1CN]
MIC (bacteria; A. calcoaceticus AC001): 32 µg/mL
MIC (bacteria; E. cloacae ECL007): >128 µg/mL
MIC (bacteria; E. coli ECO003): 8 µg/mL
MIC (bacteria; E. faecalis EFS004): 8 µg/mL
MIC (bacteria; E. faecium EFM002): 2 µg/mL
MIC (bacteria; K. pneumoniae KP002): 64 µg/mL
MIC (bacteria; P. aeruginosa PA005): >128 µg/mL
MIC (bacteria; S. aureus SA005): 2 µg/mL
MIC (bacteria; S. epidermidis SE001): 2 µg/mL
MIC (bacteria; S. maltophilia SMA001): 64 µg/mL
MIC (bacteria; S. marcescens SMS004): >128 µg/mL
Peptide MIC + Vancomycin ([2]; E. faecalis EFS003): 32 µg/mL
Vancomycin MIC + Peptide ([2]; E. faecalis EFS003): 4 µg/mL
Peptide MIC Alone ([2]; E. faecalis EFS003 (8. Vancomycin)): >128 µg/mL
Peptide MIC + Vancomycin ([2]; E. faecalis EFS006): 0.25 µg/mL
Vancomycin MIC + Peptide ([2]; E. faecalis EFS006): 4 µg/mL
Peptide MIC Alone ([2]; E. faecalis EFS006 (8. Vancomycin)): 128 µg/mL
Peptide MIC + Vancomycin ([2]; E. faecalis EFS010): 8 µg/mL
Vancomycin MIC + Peptide ([2]; E. faecalis EFS010): 1 µg/mL
Peptide MIC Alone ([2]; E. faecalis EFS010 (8. Vancomycin)): 128 µg/mL
Peptide MIC + Vancomycin ([2]; E. faecalis EFS014): 2 µg/mL
Vancomycin MIC + Peptide ([2]; E. faecalis EFS014): 1 µg/mL
Peptide MIC Alone ([2]; E. faecalis EFS014 (8. Vancomycin)): 4 µg/mL
Peptide MIC + Vancomycin ([2]; E. faecium EFM004): 16 µg/mL
Vancomycin MIC + Peptide ([2]; E. faecium EFM004): 0.5 µg/mL
Peptide MIC Alone ([2]; E. faecium EFM004 (8. Vancomycin)): 32 µg/mL
Peptide MIC + Vancomycin ([2]; E. faecium EFM007): 16 µg/mL
Vancomycin MIC + Peptide ([2]; E. faecium EFM007): 4 µg/mL
Peptide MIC Alone ([2]; E. faecium EFM007 (8. Vancomycin)): 64 µg/mL
Peptide MIC + Vancomycin ([2]; E. faecium EFM009): 8 µg/mL
Vancomycin MIC + Peptide ([2]; E. faecium EFM009): 4 µg/mL
Peptide MIC Alone ([2]; E. faecium EFM009 (8. Vancomycin)): 64 µg/mL
FIC ([2]; peptide + Vancomycin, E. faecalis EFS003): 0.63
FIC ([2]; peptide + Vancomycin, E. faecalis EFS006): 0.50
FIC ([2]; peptide + Vancomycin, E. faecalis EFS010): 0.13
FIC ([2]; peptide + Vancomycin, E. faecalis EFS014): 0.51
FIC ([2]; peptide + Vancomycin, E. faecium EFM004): 0.50
FIC ([2]; peptide + Vancomycin, E. faecium EFM007): 0.28
FIC ([2]; peptide + Vancomycin, E. faecium EFM009): 0.25

Teicoplanin [reference compound]
MIC Alone ([1]; E. gallinarum 97046 VanC, pair Teicoplanin / MBI 26): 1 µg/mL
MIC Alone ([1]; E. gallinarum 97047 VanC, pair Teicoplanin / MBI 26): 8 µg/mL
MIC Alone ([1]; E. gallinarum 97049 VanC, pair Teicoplanin / MBI 26): 2 µg/mL
